In assay [1] the test system is IMQ-induced mouse model of lupus. In words: IMQ-induced mouse model of lupus, LA1 co-treatment i.p. The format is in vivo, wild type C57BL/6 mice. The settings on record: IMQ cream 8 weeks. Here is the method: FIG. 8A illustrates an experimental timeline for the measurement of suPAR levels, albumin creatinine ratios (ACR), anti-dsDNA antibody levels, and spleen size in wild type mouse models treated with IMQ, LA1, or IMO and LA1 co-treatment.
FIG. 8B illustrates levels of biomarker suPAR in the blood and urine of wild type mice (WT), mice treated with IMQ, mice co-treated with IMQ and vehicle DMSO or mice co-treated with IMQ and LA1 (2 mg/kg i.p. daily). Each dot represents a unique sample. Bars show mean +/−SEM (n=5).
FIG. 8C illustrates the albumin creatinine ratios (ACR) in the blood and urine of wild type mice (WT), mice treated with IMQ, mice co-treated with IMQ and vehicle DMSO or mice co-treated with IMQ and LA1 (2 mg/kg i.p. daily). Each dot represents a unique sample. Bars show mean +/−SEM (n=5).
FIG. 8D illustrates levels of anti-dsDNA antibodies in the blood and urine of wild type mice (WT), mice treated with IMQ, mice co-treated with IMQ and vehicle DMSO, or mice co-treated with IMQ and LA1 (2 mg/kg i.p. daily). Each dot represents a unique sample. Bars show mean +/−SEM (n=5).
FIG. 8E illustrates spleen size (mm) and weight (g) of wild type mice (WT), mice treated with IMQ, mice co-treated with IMQ and vehicle DMSO, or mice co-treated with IMQ and LA1. Each dot represents a unique sample. Bars show mean +/−SEM (n=5).
To investigate efficacy of LA1 as a therapeutic for SLE and autoimmune diseases in vivo, an IMQ-induced mouse model of lupus (Yokogawa et al, 2014) was used. Imiquimod (IMQ), a known TLR7 stimulant, was used to induce disease in wild type mice. Briefly, wild type C57BL/6 mice (WT) were treated topically with IMQ cream (Aldara) over the course of 8 weeks, as shown in the timeline of FIG. 8A, a group was also co-treated intraperitoneally with LA1 or vehicle DMSO. Blood and urine were collected for analysis of inflammatory cytokines and proteinuria over the course of treatment. […] Additionally, spleen size and weight were recorded.

Assay [2] concerns humanized mouse model of SLE (SLE-NSG mice). In words: Humanized SLE mouse model (NSG mice engrafted with SLE patient PBMCs). Format: in vivo. The method, then:
NSG mice engrafted with healthy control or SLE PBMCs were subsequently treated with LA1 or vehicle and human dsDNA levels were measured after 4 weeks of treatment. Each dot represents a unique sample. Bars show mean +/−SEM (n=3-6).
NSG mice engrafted with healthy control or SLE PBMCs were subsequently treated with LA1 or vehicle and suPAR levels were measured after 4 weeks of treatment. Each dot represents a unique sample. Bars show mean +/−SEM (n=3-6). […]
NSG mice engrafted with healthy control or SLE PBMCs were subsequently treated with LA1 or vehicle and ACR was measured after 4 weeks of treatment. Each dot represents a unique sample. Bars show mean +/−SEM (n=3-6).
FIG. 14A illustrates alopecia in control mouse models (Ctrl), mice engrafted with heathy PBMCs (HC), humanized SLE models treated with vehicle (Veh), and humanized SLE models treated with LA1. […]
The efficacy of CD11b agonist LA1 as a therapeutic was studied using a generated humanized mouse model of SLE. To generate the humanized SLE model, immunocompromised NSG mice engrafted with peripheral blood mononuclear cells (PBMCs) from either SLE patients or from healthy human donors (control). 2.5×10^6 purified PBMCs were injected intravenously into NSG mice on day 0. The humanized mice were monitored daily for significant clinical signs of SLE (alopecia, skin lesions, weight loss & arthritis), morbidity and mortality. Body weights were recorded weekly and skin lesions were photographed and scored weekly.
A small sample of peripheral blood was drawn from the mice under general anesthesia 2, 4 and 6 wks post-humanization by penetrating the retro-orbital sinus in mice with a sterile Pasteur pipette. The blood sample was split for fluorescence-activated cell sorting (FACS) analysis and serum preparation. […] For serum, the whole blood was clotted at room temperature for 30 minutes, followed by a 10-minute centrifugation at 10,000 RPM. The red blood cell-free serum was transferred into micro-centrifuge tubes and stored at −80° C. until further analysis. Additionally, urine samples were collected weekly, transferred into a micro-centrifuge tube and stored at −80° for future analysis. Urine protein was measured using a sandwich ELISA specific for mouse albumin (Bethyl Laboratories, TX) and urinary creatinine was determined using the Creatinine Companion kit (Exocell, PA) according to manufacturer's protocol.
To test the efficacy of LA1 on humanized SLE mouse models, the generated SLE-NSG mice were treated with LA1 (2 mg/kg i.p. daily) starting at two weeks post administration of PBMCs and until experiment completion. Concentrations of human dsDNA, mouse suPAR, and IFNb were measured in NSG mice, NSG mice engrafted with PBMCs from a healthy donor, untreated SLE-NSG mice, SLE-NSG mice treated with a vehicle, and SLE-NSG mice treated with LA1.

The test system of assay [3] is MRL/lpr mice. Nature of the assay: MRL/lpr mouse model of lupus and LN: alopecia and skin lesions. The note with it: for alopecia (nose area): Mrl/lpr mice. Format: in vivo. The source says: FIG. 13B illustrates percentage of skin effected by alopecia on the nose area of untreated mice (Ctrl), mice treated with a vehicle (Veh), and mice treated with LA1 (LA1). […] Bars show mean +/−SEM (n=5).
FIG. 13C illustrates lesion size (mm) in untreated mice (Ctrl), mice treated with a vehicle (Veh), and mice treated with LA1 (LA1). […] Bars show mean +/−SEM (n=5).
To evaluate the efficacy of LA1 as a treatment for LN, MRL/ipr mouse models were used. MRL/lpr mice develop high circulating levels of IFN-I, systemic inflammation and multi-organ pathology, including skin, vascular, and kidney damage, and LN. Thus, this genetic mouse model mimics several features of human lupus and LN.

The mark [4] stands for this setting: co-treated with LA1 2 mg/kg i.p. daily, vs IMQ.
[5] abbreviates: LA1 2 mg/kg i.p. daily from two weeks post PBMCs, after 4 weeks of treatment, vs vehicle, 2 mg/kg.
[6] abbreviates: humanized SLE mice treated with LA1 vs vehicle.

Structures are written as SMILES. “Also recorded” adds a separate entry of the source.

These results are taken from patent US20260137662A1, “CD11B AGONISTS FOR TREATMENT OF AUTOIMMUNE DISEASE” (Rush University Medical Center, priority 2022, published 2026).

In the case of `O=C(O)c1ccc(-c2ccc(/C=C3\SC(=S)N(Cc4ccccc4)C3=O)o2)cc1` [LA1, (Z)-4-(5-((3-benzyl-4-oxo-2-thioxothiazolidin-5-ylidene)methyl)furan-2-yl)benzoic acid], in assay [1] (co-treated with LA1), the spleen size result is on record as “reduced” and the spleen weight result is recorded as “reduced”. For the same molecule, in assay [1] (setting [4]), the “albumin creatinine ratios (ACR)” value is on record as “significantly reduced”, the “levels of anti-dsDNA antibodies” value is on record as “significantly reduced” and the “levels of suPAR” value is “significantly reduced”. Also, in assay [2] (setting [5]), the “concentration of IFNb in the serum” value was “significantly reduced; also recorded: reduction”, the “concentration of anti-double stranded DNA antibodies (human dsDNA) in the serum” value is recorded as “significantly reduced; also recorded: reduction”, the “concentration of suPAR in the serum” value was “significantly reduced; also recorded: reduction” and the “urinary albumin creatinine ratios (ACR)” value is listed as “significantly reduced; also recorded: reduction”. For the same molecule, in assay [2] (setting [6]), the “alopecia (nose area)” value is “significantly reduced; also recorded: reduces alopecia”; the “number of GR1-positive, CD11b-positive cells in spleens” value is on record as “reduction in number”; the “number of neutrophils infiltrating in the kidney (H&E staining)” value is “reduction in number”. Further, the skin lesions result in assay [3] (Mrl/lpr mice treated with LA1, co-treatment and delayed treatment) is recorded as “reduces clinical symptoms”. Also, the “alopecia (nose area)” value in assay [3] (LA1 as co-treatment) was “reduction in alopecia”. The “alopecia (nose area)” value in assay [3] (LA1 treatment after 2-weeks of disease onset) is listed as “reduction in alopecia”.
